The values below come from US20110182992A1, “PEPTIDES AND PEPTIDE MIMETICS TO TREAT PATHOLOGIES ASSOCIATED WITH EYE DISEASE” (priority 2008, published 2011).

Series [1] has as its system LDL receptor null mice. Put plainly: HDL protective capacity in LDL receptor null mice given peptide in drinking water. In kind it is in vivo. As to conditions: 0.25 or 0.5 mg per ml of drinking water, 24 or 48 hrs, mouse HDL at 100 μg/ml. As for the experimental part:
FIG. 3 illustrates the effect of apo J peptide mimetics on HDL protective capacity in LDL receptor null mice. The values are the mean±SD of the number of migrated monocytes in 9 high power fields from each of quadruple assay wells.
D-4F designated as F, or the apoJ peptide made from D amino acids (D-J336, designated as J) was added to the drinking water of LDL receptor null mice (4 per group) at 0.25 or 0.5 mg per ml of drinking water. After 24- or 48-hrs blood was collected from the mice and their HDL was isolated and tested for its ability to protect against LDL-induced monocyte chemotactic activity. Assay controls included culture wells that received no lipoproteins (no addition), or control human LDL alone (designated as LDL, 200µg cholesterol/ml), or control LDL+ control human HDL (designated as +HDL, 350µg HDL cholesterol). For testing the mouse HDL, the control LDL was added together with mouse HDL (+F HDL or +J HDL) to artery wall cell cultures. The mouse HDL was added at 100 μg cholesterol/ml respectively.

For series [2], the system named is ApoE null mice. Put plainly: Protection against PAPC oxidation by HPODE and induction of monocyte chemotactic activity by HDL from apo E null mice given oral peptides. The series is classed as in vivo, mouse. As to conditions: added to the drinking water, 24 hrs; murine HDL 100 μg cholesterol/ml. As for the experimental part:
The values are the mean±SD of the number of migrated monocytes in 9 high power fields from each of quadruple assay wells. Asterisks indicate significant difference (p<0.05) as compared to No Peptide mHDL.
After 24 hrs blood was collected, plasma fractionated by FPLC and fractions containing HDL (designated as mHDL) were pooled and HDL protective capacity against PAPC oxidation as determined by the induction of monocyte chemotactic activity was determined. For the assay controls the culture wells received no lipoproteins (no additions), the phospholipid PAPC at 20µg/ml+HPODE, at 1.0 μg/ml, or PAPC+HPODE plus standard normal human HDL (at 350 μg HDL cholesterol/ml and designated as +Cont. h HDL).
For testing the murine HDL, PAPC+HPODE together with murine HDL (+F mHDL or +J mHDL) were added to artery wall cell cultures. […] The murine HDL was used at 100 μg cholesterol/ml.

The test system of series [3] is PON1. As to conditions: added to the drinking water, 24 hrs.
Description: The values are the mean±SD of readings from quadruple plasma aliquots.
After 24 hrs blood was collected and plasma was assayed for PON1 activity.
For series [4], the system named is human aortic endothelial cells. Put plainly: Prevention of LDL-induced monocyte chemotactic activity by pre-treatment of artery wall cells. In kind it is cell-based. As to conditions: 6 hrs pre-incubation with peptide, wash, then control human LDL 200 μg protein/ml overnight. As for the experimental part:
FIG. 2 illustrates the prevention of LDL-induced monocyte chemotactic activity by pre-treatment of artery wall cells with D-J336 as compared to D-4F. The data are mean±SD of the number of migrated monocytes in nine high power fields in quadruple cultures.
FIG. 2 illustrates a comparison of the effect of D-4F with the effect of D-J336 on the prevention of LDL induced monocyte chemotactic activity in a pre-incubation. Human aortic endothelial cells were pre-incubated with D-J336 or D-4F at 4, 2, and 1µg/ml for DJ336 or 100, 50, 25, and 12.5 μg/ml for D-4F for 6 hrs. The cultures were then washed and were incubated with medium alone (no addition), or with control human LDL (200 μg protein/ml), or with control human LDL+ control human HDL (350 μg HDL protein/ml) as assay controls. The wells that were pre-treated with peptides received the control human LDL at 200 μg protein/ml. Following overnight incubation, the supernatants were assayed for monocyte chemotactic activity.

The subject of series [5] is ApoE null mice. Put plainly: Protection against LDL-induced monocyte chemotactic activity by HDL from apo E null mice given oral peptides. The series is classed as in vivo, mouse. From the text:
FIG. 4 illustrates protection against LDL-induced monocyte chemotactic activity by HDL from apo E null mice given oral peptides. The values are the mean±SD of the number of migrated monocytes in 9 high power fields from each of quadruple assay wells. Asterisks indicate significant difference (p<0.05) as compared to No Peptide mHDL.
After 24 hrs blood was collected, plasma fractionated by FPLC and fractions containing LDL (designated as mLDL for murine LDL) and fractions containing HDL (designated as mHDL) were separately pooled and HDL protective capacity against LDL oxidation as determined by LDL-induced monocyte chemotactic activity was determined. For the assay controls the culture wells received no lipoproteins (no additions), mLDL alone (at 200 μg cholesterol/ml), or mLDL+ standard normal human HDL (designated as Cont. h HDL, at 350 μg HDL cholesterol/ml).
For testing the murine HDL, mLDL together with murine HDL (+F mHDL or +J mHDL) were added to artery wall cell cultures. […] The murine HDL was used at 100µg cholesterol/ml.

The test system of series [6] is human aortic endothelial cells. Put plainly: Prevention of LDL-induced monocyte chemotactic activity, co-incubation. The series is classed as cell-based. As to conditions: co-incubation with control human LDL 200 μg protein/ml, overnight.
Series [7] has as its system ApoE null mice. Put plainly: Ability of LDL from apoE null mice given oral peptides to induce monocyte chemotactic activity (LDL susceptibility to oxidation). As to conditions: added to the drinking water, 24 hrs. The series is classed as in vivo, mouse. From the text:
FIG. 5 illustrates the effect of oral apo A-1 peptide mimetic and apoJ peptide on LDL susceptibility to oxidation. The values are the mean±SD of the number of migrated monocytes in 9 high power fields from each of quadruple assay wells. Asterisks indicate significant difference (p<0.05) as compared to No Peptide LDL.
FIG. 5 illustrates the effect of oral apo A-1 peptide mimetic and apoJ peptide on LDL susceptibility to oxidation. […] After 24 hrs blood was collected from the mice shown in FIG. 4, plasma fractionated by FPLC and fractions containing LDL (designated as mLDL for murine LDL) were pooled and LDL susceptibility to oxidation as determined by induction of monocyte chemotactic activity was determined. For the assay controls the culture wells received no lipoproteins (no additions), mLDL alone (at 200 μg cholesterol/ml), or mLDL+ standard normal human HDL (designated as Cont. h HDL, 350 μg HDL cholesterol).
Murine LDL, mLDL, from mice that received the D-4F (F mLDL) or those that received the apoJ peptide (J mLDL) were added to artery wall cell cultures.

For series [8], the system named is C57Bl/6J-apoE null mice. Kind of series: Intravitreal L-4F: electron microscopy of Bruch's membrane of aged C57Bl/6J-apoE null mice. The series is classed as in vivo, mouse. From the text:
In every other RPE cell big lipid vacuoles (asterisks) are found, a sign of stress and beginning degeneration. PR: photo receptors; CC: choriocapillaris: EC: vascular endothelial cell of the choriocapillaris.
The membrane is slightly thickened with multiple translucent lipid vacuoles. A few are marked with asterisks. EC: vascular endothelial cell of choriocapillaris.
An effective clearance of this lipid debris via an ApoA-I mimetic peptide (L-4F) could prevent early AMD-like degeneration.
L-4F was injected directly into the vitreous cavity of right eyes of 10 eight month old C57Bl/6J-apoE null mice. A single dose of 3 μl was injected with a L-4F concentration of 400 μg/ml. All left eyes were untreated throughout the study and thus be served as controls. The animals were then sacrificed 21 days after the injection and the eyes were immediately enucleated and fixed. Eyes then were processed for electron microscopy (EM).

Series [9] deals with human volunteers. Put plainly: LDL isolated after infusion of apo A-I into humans: oxidation by human artery wall cells. In kind it is in vivo. From the text:
(§1) We discovered that normal HDL inhibits three steps in the formation of mildly oxidized LDL. […] These seeding molecules were required for cocultures of human artery wall cells to be able to oxidize LDL and for the LDL to induce the artery wall cells to produce monocyte chemotactic activity.

Series [10] relates to mice. Kind of series: LDL isolated after injection of apo A-I into mice: oxidation by human artery wall cells. In kind it is in vivo, mouse.
Excerpt: as §1

In series [11] the test system is human LDL. Put plainly: Treating human LDL in vitro: removal of seeding molecules.
Excerpt: as §1

Series [12] deals with ApoE null mice. Put plainly: HDL function after D-4F and/or statin in the drinking water. As to conditions: 0.05 mg/ml in the drinking water for 24 hours. The series is classed as in vivo, mouse.
A short description of series [13]: Association with pre-beta HDL / HDL and clearance from the circulation after an oral dose. As to conditions: mouse, in vivo.
The subject of series [14] is mice fed an atherogenic diet. As to conditions: 20 μg daily injected; cited from earlier work.

Ac-LLEQLNEQFNWVSRLANLTQGE-NH2 [D-J336]: the “activity of mouse HDL in preventing control LDL from inducing artery wall cells to produce monocyte chemotactic activity” value in series [1] is reported as “as active as 350 μg/ml of control human HDL”. Moreover, the “potency in causing HDL to inhibit oxidation of PAPC by HPODE in a human artery wall co-culture (monocyte chemotactic activity)” value in [2] is listed as “as potent as D-4F”. Moreover, in series [3], the “potency in increasing the paraoxonase activity of apo E null mice” value is recorded as “at least as potent as D-4F”. For the same molecule, the “potency in preventing LDL oxidation by artery wall cells in vitro, compared with D-4F” value in series [4] was 10-25 times more potent. Besides, in series [5] (ApoE null mice, peptide in drinking water 24 hrs, murine HDL at 100 μg/ml), the “activity of murine HDL against LDL-induced monocyte chemotactic activity” value is given as “as active as 350µg/ml of normal human HDL”. The “potency in enhancing HDL protective capacity in apo E null mice” value in [5] (added to the drinking water, 24 hrs) is “as potent as D-4F”. For the same molecule, the “in vitro concentration that prevents LDL-induced monocyte chemotactic activity by human artery wall cells, relative to the concentration required for the D-4F peptide” value in series [6] is 10 to 25 times less. Also, the “potency in rendering LDL from apo E null mice resistant to oxidation by human artery wall cells (induction of monocyte chemotactic activity)” value in [7] is given as “slightly more potent than D-4F”.

With “Ac-D-W-F-K-A-F-Y-D-K-V-A-E-K-F-K-E-A-F-NH2 (Ac-DWFKAFYDKVAEKFKEAF-NH2) [Peptide L-4F]”, in series [8] (magnification 5,000×), the “Bruch's membrane structure, electron microscopy of treated eyes” value was “regular and uniform Bruch's membrane structure”; the “lipid droplets in RPE cells, electron microscopy of treated eyes” value was “none of the RPE cells showed lipid droplets”. Moreover, the “translucent lipid vacuoles in Bruch's membrane, electron microscopy of a treated eye” value in [8] (magnification 20,000×) is “no translucent lipid vacuoles shown”. In addition, the “Bruch's membrane and RPE morphology and lipid content of treated eyes compared to untreated eyes (EM)” value in series [8] (single intravitreal 3 μl of 400 μg/ml, 21 days, EM of 2 mice) is “significant improvement in Bruch's membrane and RPE morphology as well as lipid content”.

Take “apo A-I: apolipoprotein A-I, the major protein of HDL”: the “oxidation of LDL isolated after infusion, by human artery wall cells, and induction of monocyte chemotactic activity” value in [9] was “resistant to oxidation by human artery wall cells and did not induce monocyte chemotactic activity”. Moreover, the “oxidation of LDL isolated after injection, by human artery wall cells, and induction of monocyte chemotactic activity” value in series [10] is “resistant to oxidation by human artery wall cells and did not induce monocyte chemotactic activity”. For the same molecule, the “removal of seeding molecules from human LDL in vitro” value in [11] was “removed seeding molecules from the LDL that included HPODE and HPETE”.

In the case of `CC(C)c1c(C(=O)Nc2ccccc2)c(-c2ccccc2)c(-c2ccc(F)cc2)n1CC[C@@H](O)C[C@@H](O)CC(=O)O` [atorvastatin, reference compound], in [12], the “HDL function, statin alone” value was “did not improve HDL function”.

As for Ac-LVGRQLEEFL-NH2 [D-[113-122]apoJ], in [13], the “association with pre-beta HDL and HDL” value is “slowly associates with pre-beta HDL and to a lesser extent with HDL”; the “time it remains associated with the HDL fractions (pre-beta HDL, HDL)” value was “at least 36 hours”.

Take “Ac-D-W-L-K-A-F-Y-D-K-V-F-E-K-F-K-E-F-F-NH2 (Ac-DWLKAFYDKVFEKFKEFF-NH2) [Peptide 5F]”: the “LDL from PBS-injected mice compared with LDL from peptide-injected mice: oxidation and induction of monocyte chemotactic activity” value in [14] is “more readily oxidized and more readily induced monocyte chemotactic activity than LDL taken from mice fed the same diet but injected with 20µg daily of peptide 5F”.
